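Compound exposure: 48 hours, 5 concentrations, 96-well plates. TGI denotes the concentration required for complete inhibition of growth.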
Assays:
Assay in all cases: NCI tumour cell line growth inhibition, 48 h
[1] = system: HOP-92 NSCLC
[2] = system: A498 renal
[3] = system: UACC-257 melanoma
[4] = system: SK-OV-3 ovarian
[5] = system: OVCAR-8 ovarian
[6] = system: OVCAR-4 ovarian
[7] = system: IGROV1 ovarian
[8] = system: COLO 205 colon
[9] = system: SK-MEL-28 melanoma
[10] = system: U251 CNS
[11] = system: LOX IMVI melanoma
[12] = system: HCT-116 colon
[13] = system: SF-539 CNS
[14] = system: SNB-75 CNS
[15] = system: KM12 colon
[16] = system: M19-MEL melanoma
[17] = system: CAKI-1 renal
[18] = system: RPMI-8226 leukemia
[19] = system: EKVX NSCLC
[20] = system: MCF7 breast
[21] = system: HOP-62 NSCLC
[22] = system: XF 498 CNS
[23] = system: NCI-H522 lung
[24] = system: UO-31 renal
[25] = system: MALME-3M melanoma
[26] = system: HT29 colon
[27] = system: SK-MEL-5 melanoma
[28] = system: HCC-2998 colon
[29] = system: P388 leukemia
[30] = system: SN12C renal
[31] = system: HL-60(TB) leukemia
[32] = system: OVCAR-5 ovarian
[33] = system: KM20L2 colon
[34] = system: CCRF-CEM leukemia
[35] = system: DLD-1 colon
[36] = system: K-562 leukemia
[37] = system: OVCAR-3 ovarian
[38] = system: NCI-H226 lung
[39] = system: NCI-H460 lung
[40] = system: DMS 114 small cell lung
[41] = system: SK-MEL-2 melanoma
[42] = system: HCT-15 colon
[43] = system: NCI-H23 lung
[44] = system: SW-620 colon
[45] = system: SN12K1 renal
[46] = system: SF-268 CNS
[47] = system: SF-295 CNS
[48] = system: RXF 393 renal
[49] = system: HOP-18 NSCLC
[50] = system: SNB-78 CNS
[51] = system: A549 NSCLC
[52] = system: MOLT-4 leukemia
[53] = system: SNB-19 CNS
[54] = system: DMS 273 small cell lung
[55] = system: P388/ADR leukemia
[56] = system: UACC-62 melanoma
[57] = system: NCI/ADR-RES ovarian

`CC[C@@]1(O)C[C@H](OC2CC(N(C)C)C(OC3CC(O)C(OC4CC(O)C(O)C(C)O4)C(C)O3)C(C)O2)c2c(cc3c(c2O)C(=O)c2c(O)ccc(O)c2C3=O)[C@H]1C(=O)OC` (some centres not stated) showed a TGI [1] of 867 nM, a TGI [2] of 89.1 nM and a TGI [3] of 184 nM. For the same compound, the TGI [4] was 3.04 µM, the TGI [5] was 1150 nM and the TGI [6] was 564 nM. For the same compound, the TGI [7] was 3.84 µM, the TGI [8] was 390 nM and the TGI [9] was 293 nM. For the same compound, the TGI [10] was 3.18 µM, the TGI [11] was 3.67 µM and the TGI [12] was 118 nM. It also gave a TGI [13] of 341 nM, a TGI [14] of 390 nM and a TGI [15] of 3.03 µM. For the same compound, the TGI [16] was 210 nM, the TGI [17] was 142 nM and the TGI [18] was 385 nM. For the same compound, the TGI [19] was 982 nM, the TGI [20] was 959 nM and the TGI [21] was 500 nM. The TGI [22] was 225 nM, the TGI [23] was 153 nM and the TGI [24] was 1220 nM. For the same compound, the TGI [25] was 196 nM, the TGI [26] was 871 nM and the TGI [27] was 135 nM. For the same compound, the TGI [28] was 662 nM, the TGI [29] was 89.2 nM and the TGI [30] was 2090 nM. It also gave a TGI [31] of 1370 nM, a TGI [32] of 3.1 µM and a TGI [33] of 2620 nM. It also gave a TGI [34] of 1810 nM, a TGI [35] of 3.59 µM and a TGI [36] of 1700 nM. It also gave a TGI [37] of 347 nM, a TGI [38] of 203 nM and a TGI [39] of 103 nM. For the same compound, the TGI [40] was 959 nM, the TGI [41] was 124 nM and the TGI [42] was 2660 nM. The TGI [43] was 314 nM, the TGI [44] was 1940 nM and the TGI [45] was 67.8 nM. For the same compound, the TGI [46] was 1490 nM, the TGI [47] was 654 nM and the TGI [48] was 112 nM. The TGI [49] was 1320 nM, the TGI [50] was 2100 nM and the TGI [51] was 19.8 µM. For the same compound, the TGI [52] was 103 nM, the TGI [53] was 4.3 µM and the TGI [54] was 482 nM. For the same compound, the TGI [55] was 2230 nM, the TGI [56] was 106 nM and the TGI [57] was 10.2 µM.

— PubChem BioAssay (NCI)
